According to PMC2763043 (ACS chemical biology, 2009):

How the values were obtained:
[1] = biological target: Androgen Receptor (AR) (Homo sapiens, UniProt P10275); assay: AR transcription reporter assay; assay type: cell-based; conditions: 0.2 nM DHT
[2] = system: MDA-kb2 cells; assay: Cytotoxicity in MDA-kb2; assay type: cell-based; conditions: Cell-Titer Glo, 20 hours
[3] = biological target: T1, AR-LBD (Homo sapiens, UniProt P10275); assay: Scintillation Proximity Assay, [3H]-DHT displacement from AR-LBD; assay type: binding; conditions: SPA
T1 sequence (P10275 663-919): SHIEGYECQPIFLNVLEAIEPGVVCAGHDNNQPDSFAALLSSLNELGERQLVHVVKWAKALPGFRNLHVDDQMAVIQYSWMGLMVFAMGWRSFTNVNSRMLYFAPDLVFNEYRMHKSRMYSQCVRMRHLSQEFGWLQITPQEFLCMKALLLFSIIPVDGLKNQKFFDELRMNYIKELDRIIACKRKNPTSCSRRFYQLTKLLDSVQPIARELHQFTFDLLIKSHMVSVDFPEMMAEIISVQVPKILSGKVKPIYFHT

[4] = PAMPA permeability and membrane retention; conditions: 0.5% DMSO, pH 7.4
[5] = system: FKBP51; assay: Real time rt-PCR of FKBP51, 18S and GAPDH in MDA-kb2; assay type: cell-based; conditions: 0.2 nM DHT, MDA-kb2, control experiments
[6] = system: AR; conditions: cited from earlier work
[7] = in vitro; conditions: PAMPA, pH 7.4

Chain of Androgen Receptor (AR) (P10275 whole entry): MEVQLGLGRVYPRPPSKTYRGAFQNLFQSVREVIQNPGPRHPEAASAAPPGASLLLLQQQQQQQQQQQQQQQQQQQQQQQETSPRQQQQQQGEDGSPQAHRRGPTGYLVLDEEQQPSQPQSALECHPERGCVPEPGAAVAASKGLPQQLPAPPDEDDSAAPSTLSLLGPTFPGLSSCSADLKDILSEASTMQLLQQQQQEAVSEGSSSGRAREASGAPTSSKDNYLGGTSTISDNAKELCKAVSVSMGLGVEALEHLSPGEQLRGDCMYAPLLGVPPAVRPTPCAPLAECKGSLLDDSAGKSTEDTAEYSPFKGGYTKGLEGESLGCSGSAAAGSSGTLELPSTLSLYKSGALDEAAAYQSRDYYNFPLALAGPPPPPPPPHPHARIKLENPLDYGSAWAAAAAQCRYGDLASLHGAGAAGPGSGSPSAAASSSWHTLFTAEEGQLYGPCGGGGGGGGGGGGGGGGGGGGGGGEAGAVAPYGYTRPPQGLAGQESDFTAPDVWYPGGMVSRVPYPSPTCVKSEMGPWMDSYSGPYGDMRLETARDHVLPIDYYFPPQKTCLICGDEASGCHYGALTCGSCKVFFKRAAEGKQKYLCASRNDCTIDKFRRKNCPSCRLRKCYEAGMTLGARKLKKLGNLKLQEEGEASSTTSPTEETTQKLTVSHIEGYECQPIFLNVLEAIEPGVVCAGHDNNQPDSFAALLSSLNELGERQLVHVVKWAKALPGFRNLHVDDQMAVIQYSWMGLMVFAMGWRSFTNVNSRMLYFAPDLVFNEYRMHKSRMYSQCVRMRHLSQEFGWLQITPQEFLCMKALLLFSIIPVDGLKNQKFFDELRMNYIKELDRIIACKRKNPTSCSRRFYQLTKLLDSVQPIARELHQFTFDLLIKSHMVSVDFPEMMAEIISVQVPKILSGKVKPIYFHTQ

O=C(O)c1ccccc1Nc1ccc(Cc2ccccc2)cc1 [Compound 20]
% inhibition (in brackets), transcriptional inhibition in MDA-kb2 [1]: 75% | Cytotoxicity (IC50) in MDA-kb2 [2]: Non toxic | Binding to the DHT (hormone) binding site of AR-LBD, in words [3]: low micromolar range | Permeability [4]: 98 ± 31 10^‒6 cm s^‒1 | Retention in membrane [4]: 89%

C[C@]12CCC(=O)C[C@@H]1CC[C@@H]1[C@@H]2CC[C@]2(C)[C@@H](O)CC[C@@H]12 [DHT, dihydrotestosterone]
FKBP51 induction [5]: 4–5 fold

O=C(O)c1ccccc1Nc1cccc(C(F)(F)F)c1 [Compound 1, flufenamic acid]
Block of AR transcription activity [6]: able to block AR transcription activity

CC(O)(CS(=O)(=O)c1ccc(F)cc1)C(=O)Nc1ccc(C#N)c(C(F)(F)F)c1 (centres unmarked) [Bicalutamide]
Cytotoxicity (IC50) in MDA-kb2 [2]: Non toxic

CC(C)(O)C(=O)Nc1ccc([N+](=O)[O-])c(C(F)(F)F)c1 [Hydroxyflutamide]
Cytotoxicity (IC50) in MDA-kb2 [2]: Non toxic | Papp [7]: 183 ± 29 ×10⁻⁶ cm/s | Retention in membrane [4]: 75%
